# Publication PMC5011961, “In vitro antimicrobial activities of animal-used quinoxaline 1,4-di-N-oxides against mycobacteria, mycoplasma and fungi” (BMC Veterinary Research, 2016)
# Like-named read-outs stand apart in the source and are kept apart here.
# Key:
# M. bovis ATCC 19210 = assay: microbe, parasite or virus in culture; assay type: cell-based, Mycobacterium bovis; details: Mycobacterium tuberculosis variant bovis, ATCC19210
# [1] = test system: M. tuberculosis H37Rv ATCC 27294; assay: Microdilution alamar blue assay (MABA); assay type: cell-based, Mycobacterium tuberculosis; details: Mycobacterium tuberculosis, read-out: MIC
# Mycoplasma gallisepticum = assay: Combination susceptibility assay (checkerboard method); assay type: cell-based; details: combined with tetracyclines (tetracycline and doxycycline), M. gallisepticum
# M. tuberculosis complex = assay: Combination susceptibility assay (checkerboard method), overall statements; assay type: cell-based; details: combined with rifampicin
# PRRSV = assay: Antiviral assay (CPE/MTT; adsorption inhibition, infection inhibition, virucidal); assay type: cell-based, porcine reproductive and respiratory syndrome virus; parameters: key to IC50: “--”represent not detected owing to the low inhibition ratio; details: PRRSV, mean±SD of four experiments
# PPV = assay: as above; assay type: cell-based, porcine parvovirus; parameters: key to IC50: “--” represent not detected owing to the low inhibition ratio; details: PPV, mean±SD of four experiments
# IBDV = assay: as above; assay type: cell-based, infectious bursal disease virus; parameters: key to IC50: “--” represent not detected owing to the low inhibition ratio; details: IBDV, mean±SD of four experiments
# [2] = test system: M. tuberculosis H37Rv ATCC 27294; parameters: method as in PMID 14561478; details: previous report; cited from earlier work
# PK-15 cells = assay: Cytotoxicity assay (MTT); details: for TC50: PK-15, 72 h, MTT, mean ± SD, n = 4; for MNTC: PK-15, maximum non-cytotoxic concentration (90 % cell viability)
# Marc-145 cells = assay: Cytotoxicity assay (MTT); details: for TC50: Marc-145, 72 h, MTT, mean ± SD, n = 4; for MNTC: Marc-145, maximum non-cytotoxic concentration (90 % cell viability)
# DF-1 cells = assay: Cytotoxicity assay (MTT); details: for TC50: DF-1, 72 h, MTT, mean ± SD, n = 4; for MNTC: DF-1, maximum non-cytotoxic concentration (90 % cell viability)
# [3] = test system: M. tuberculosis H37Ra ATCC 25177; assay: Microdilution alamar blue assay (MABA)
# Procedure: Briefly, each of the above Mycobacterium strains was cultured at 37 °C in Middlebrook 7H9 broth supplemented with 0.2 % glycerol and 10 % Oleic Acid-Albumin-Dextrose-Catalase (Sigma, St Louis, MO, USA) until logarithmic growth was reached. About 6 × 10^6 CFU/mL inoculum of Mycobacterium strain was then added to the two fold serially diluted drug samples. The final concentration of DMSO in all assays was 2.5 % or less and this dilution also served as solvent control. The samples were assayed in triplicate. All tests were carried out in sterile flat bottom 96-well microplates. Each microplate was incubated for 5 days at 37 °C in a sealed plastic CO2-permeable bag. After 7 days of incubation, 32 μL of a mixture of freshly prepared Alamar Blue solution and 20 % sterile Tween-80 at 1:1 (v/v) were added to the growth-control well. The microplates were incubated at 37 °C for 24 h. […] A well-defined pink color was interpreted as positive bacterial growth, whereas a blue color indicated an absence of growth.
# M. gallisepticum = assay: Antimycoplasma assay, MIC in microtiter plates; details: Mycoplasmoides gallisepticum
# Procedure: (§1) Briefly, 96-well microtiter Sensititre plates containing stabilized and freeze-dried antimicrobials were used. Three wells on each plate were set as antimicrobial free growth control. Freshly thawed mycoplasma isolates with known titers were diluted in liquid medium until the number of organisms reached 10^4 color changing units/mL. 50 μL of the diluted culture was transferred into each well of the Sensititre plates. […] The plates were sealed using an adhesive foil and incubated at 36 °C for 14 days. The growth of M. hyopneumoniae was observed daily when the color of the medium changed from red to yellow (phenol red indicator), and the initial and final MICs were recorded.
# M. hyopneumoniae = assay: Antimycoplasma assay, MIC in microtiter plates; details: Mesomycoplasma hyopneumoniae
# Procedure: as §1
# Microsporum canis = assay: Antifungal assay, macrobroth 2-fold serial dilution MIC
# Trichophyton rubrum = assay: as above
# Epidermophyton floccosum = assay: as above
# Candida albicans = assay: as above
# Candida tropicalis = assay: as above; details: Candida tropicalis
# Candida parapsilosis = assay: as above; details: Lodderomyces parapsilosis
# Cryptococcus neoformans = assay: as above
# Aspergillus fumigatus = assay: as above
# mycoplasma = assay: Antimycoplasma assay, overall statements; assay type: cell-based; details: range over Mycoplasma gallisepticum and Mycoplasma hyopneumoniae strains
# [4] = M. gallisepticum BG44T (10^4ccu/mL)
# [5] = M. gallisepticum MG-HS (10^6ccu/mL)
# [6] = M. gallisepticum PG31 (10^8 ccu/mL)
# [7] = C. tropicalis 2.2735, deep fungi
# [8] = A. fumigatus 3.5301, deep fungi
# [9] = A. fumigatus 3.5352, deep fungi
SMILES,MIC (M. bovis ATCC 19210),MIC [1],MIC [3],MIC (M. gallisepticum; [4]),MIC (M. gallisepticum; [5]),MIC (M. gallisepticum; [6]),MIC (M. hyopneumoniae),MIC (Microsporum canis),MIC (Microsporum canis; CBS113480),MIC (Trichophyton rubrum),MIC (Trichophyton rubrum; ATCC4438),MIC (Epidermophyton floccosum),MIC (Epidermophyton floccosum; CBS566094),"MIC (Candida albicans; C. albicans 2.4122, deep fungi)","MIC (Candida albicans; C. albicans 90028, deep fungi)",MIC (Candida tropicalis; [7]),"MIC (Candida tropicalis; C. tropicalis 7349, deep fungi)",MIC (Candida parapsilosis),MIC (Cryptococcus neoformans),MIC (Aspergillus fumigatus; [8]),further results
"CC(=O)c1c(C)[n+]([O-])c2ccccc2[n+]1[O-] [MEQ, mequindox]",8 µg/mL,4 µg/mL,32 µg/mL,16 µg/mL,32 µg/mL,16 µg/mL,32 µg/mL,> 64 µg/mL,> 64 µg/mL,> 64 µg/mL,> 64 µg/mL,> 64 µg/mL,64 µg/mL,32 µg/mL,64 µg/mL,64 µg/mL,> 64 µg/mL,64 µg/mL,32 µg/mL,> 64 µg/mL,"Combined effect (Mycoplasma gallisepticum): additive (0.5 to 1, additive); FIC (M. tuberculosis complex): 0.75; IC50 (PRRSV; Inactivation): --; IC50 (PRRSV; Prevention): --; IC50 (PRRSV; Treatment): --; IC50 (PPV; Inactivation): --; IC50 (PPV; Prevention): --; IC50 (PPV; Treatment): --; IC50 (IBDV; Inactivation): --; IC50 (IBDV; Prevention): --; IC50 (IBDV; Treatment): --; MIC [2]: 3.13 µg/mL; TC50 (PK-15 cells): 17.86 ± 1.28 µg/mL; MNTC (PK-15 cells): 0.5 µg/mL; TC50 (Marc-145 cells): 41.28 ± 1.28 µg/mL; MNTC (Marc-145 cells): 1.0 µg/mL; TC50 (DF-1 cells): 40.01 ± 1.27 µg/mL; MNTC (DF-1 cells): 2.0 µg/mL; MIC (Aspergillus fumigatus; [9]): > 64 µg/mL"
"CC[C@H]1OC(=O)C[C@@H](O)[C@H](C)[C@@H](O[C@@H]2O[C@H](C)[C@@H](O[C@H]3C[C@@](C)(O)[C@@H](O)[C@H](C)O3)[C@H](N(C)C)[C@H]2O)[C@@H](CC=O)C[C@@H](C)C(=O)/C=C/C(C)=C/[C@@H]1CO[C@@H]1O[C@H](C)[C@@H](O)[C@@H](OC)[C@H]1OC [Tylosin, tylosin]",,,,0.05 µg/mL,0.025 µg/mL,0.025 µg/mL,0.05 µg/mL,,,,,,,,,,,,,,
"CO[C@H]1/C=C/O[C@@]2(C)Oc3c(C)c(O)c4c(O)c(c(/C=N/N5CCN(C)CC5)c(O)c4c3C2=O)NC(=O)/C(C)=C\C=C\[C@H](C)[C@H](O)[C@@H](C)[C@@H](O)[C@@H](C)[C@H](OC(C)=O)[C@@H]1C [Rifampicin, rifampicin]",0.025 µg/mL,0.05 µg/mL,1.6 µg/mL,,,,,,,,,,,,,,,,,,
"CCN1CCN(c2cc3c(cc2F)c(=O)c(C(=O)O)cn3C2CC2)CC1 [Enrofloxacin, enrofloxacin]",,,,0.013 µg/mL,0.05 µg/mL,0.025 µg/mL,0.025 µg/mL,,,,,,,,,,,,,,
"NNC(=O)c1ccncc1 [Isoniazid, isoniazid]",0.025 µg/mL,0.025 µg/mL,16 µg/mL,,,,,,,,,,,,,,,,,,
"C[C@@H]1[C@H](O)[C@@H](C)/C=C/C=C/C=C/C=C/C=C/C=C/C=C/[C@H](O[C@@H]2O[C@H](C)[C@@H](O)[C@H](N)[C@@H]2O)C[C@@H]2O[C@](O)(C[C@@H](O)C[C@@H](O)[C@H](O)CC[C@@H](O)C[C@@H](O)CC(=O)O[C@H]1C)C[C@H](O)[C@H]2C(=O)O [AMB, amphotericin B]",,,,,,,,1 µg/mL,0.5 µg/mL,1 µg/mL,1 µg/mL,0.5 µg/mL,0.5 µg/mL,2 µg/mL,1 µg/mL,2 µg/mL,2 µg/mL,1 µg/mL,0.5 µg/mL,0.5 µg/mL,MIC (Aspergillus fumigatus; [9]): 0.5 µg/mL
"N#CCC(=O)N/N=C/c1c[n+]([O-])c2ccccc2[n+]1[O-] [CYA, cyadox]",8 µg/mL,4 µg/mL,64 µg/mL,32 µg/mL,16 µg/mL,16 µg/mL,16 µg/mL,32 µg/mL,16 µg/mL,32 µg/mL,32 µg/mL,32 µg/mL,32 µg/mL,32 µg/mL,64 µg/mL,32 µg/mL,32 µg/mL,32 µg/mL,16 µg/mL,64 µg/mL,"Combined effect (Mycoplasma gallisepticum): additive (0.5 to 1, additive); FIC (M. tuberculosis complex): 0.75; IC50 (PRRSV; Inactivation): --; IC50 (PRRSV; Prevention): --; IC50 (PRRSV; Treatment): --; IC50 (PPV; Inactivation): --; IC50 (PPV; Prevention): --; IC50 (PPV; Treatment): --; IC50 (IBDV; Inactivation): --; IC50 (IBDV; Prevention): --; IC50 (IBDV; Treatment): --; TC50 (PK-15 cells): 15.31 ± 1.23 µg/mL; MNTC (PK-15 cells): 1.2 µg/mL; TC50 (Marc-145 cells): 16.92 ± 1.28 µg/mL; MNTC (Marc-145 cells): 1.56 µg/mL; TC50 (DF-1 cells): 17.26 ± 1.27 µg/mL; MNTC (DF-1 cells): 1.0 µg/mL; MIC (Aspergillus fumigatus; [9]): 32 µg/mL"
"Cc1c(C(=O)/C=C/c2ccccc2)[n+]([O-])c2ccccc2[n+]1[O-] [QCT, quinocetone]",4 µg/mL,4 µg/mL,64 µg/mL,8 µg/mL,16 µg/mL,16 µg/mL,16 µg/mL,16 µg/mL,8 µg/mL,32 µg/mL,32 µg/mL,32 µg/mL,32 µg/mL,> 64 µg/mL,> 64 µg/mL,> 64 µg/mL,> 64 µg/mL,64 µg/mL,64 µg/mL,64 µg/mL,"MIC (mycoplasma): 8 to 16 µg/mL; Combined effect (Mycoplasma gallisepticum): additive (0.5 to 1, additive); FIC (M. tuberculosis complex): 0.75; IC50 (PRRSV; Inactivation): --; IC50 (PRRSV; Prevention): --; IC50 (PRRSV; Treatment): --; IC50 (PPV; Inactivation): --; IC50 (PPV; Prevention): --; IC50 (PPV; Treatment): --; IC50 (IBDV; Inactivation): --; IC50 (IBDV; Prevention): --; IC50 (IBDV; Treatment): --; TC50 (PK-15 cells): 2.38 ± 0.27 µg/mL; MNTC (PK-15 cells): 0.2 µg/mL; TC50 (Marc-145 cells): 8.90 ± 1.05 µg/mL; MNTC (Marc-145 cells): 0.39 µg/mL; TC50 (DF-1 cells): 9.89 ± 1.08 µg/mL; MNTC (DF-1 cells): 0.25 µg/mL; MIC (Aspergillus fumigatus; [9]): 64 µg/mL"
